Experiments:
[1] = tested on: wheat embryos (M3 of FS1-FS4, Fidel); assay: M3 Plant Screen: In vitro (excised embryos cultured on herbicide medium); type: cell-based
Procedure: M3 plants from the four initial plant selections (labelled FS1, FS2, FS3 and FS4) are screened for PURSUIT™ resistance in vitro. M3 seeds from each mature infloresence of these initial M2 mutants are disinfested in 70% EtOH for 30 seconds followed by disinfestation in 50% solution containing 2.625% sodium hypochlorite (as described above) for 20 minutes under vaccuum with gentle agitation provided by a stir plate. The seeds are soaked in sterile distilled water in 100×5 mm sterile plastic petri dishes for 20-24 hours after which the embryos are excised and cultured onto medium containing either 10^−4, 10^−5, or 10^−6 M PURSUIT™. […] Embryo ratings are taken at either two and one-half or three weeks after culture initiation.

[2] = tested on: M4 progeny of wheat selections FS1-FS4 and Fidel; assay: Segregation Study, postemergence spray of M4 progeny; type: in vivo
Procedure: A study is performed to assay M4 progeny of the initial mutant wheat selections for imidazolinone resistance and homogeneity. M4 seeds, from M3 plants (derived from initial selections, FS1-FS4) which survive the two-step screen described previously, are used in this study. In addition, M4 seeds derived from M3 plants of each selection which are not screened (designated “stock” plants) are evaluated as well as Fidel controls. Seeds, derived from both stock and screened M3 plants representing each infloresence of each original wheat selection (FS1-FS4), are planted in flats at a rate of twenty-five seeds per row and eight rows per flat. One week after planting, when the seedlings are at Z12 (two leaf) stage, the plants are sprayed with 62.5 g/ha PURSUIT™. The herbicide is applied with a laboratory belt sprayer at a rate of 950 L/ha with a belt speed of 12.5 sec/rev. using sprayer nozzle #40015E at a height 18 inches above the plants. Tween 20™ is used as a surfactant at 0.25% v/v. Plants are evaluated three weeks after spraying.

[3] = tested on: F2 progeny of Fidel x FS1-FS4 crosses and Fidel; assay: Genetic Condition Studies Experiment 4, F2 of (Fidel x FS) selfed; type: in vivo, wheat; conditions: 200 g/ha postemergence
Source text: Experiment 4: The resistant wheat selections, FS1-FS4, are crossed to Fidel and the F1 seed from these crosses is selfed. The crosses are as follows: (Fidel×FS1) selfed (Fidel×FS2) selfed (Fidel×FS3) selfed (Fidel×FS4) selfed
The F2 progeny from these crosses and their susceptible progenitor variety Fidel are planted in flats. Five F2 progenies are used for each of the four crosses. One flat is planted of each progeny for each cross. The flats consist of six rows per flat with 25 seeds per row. The flats are sprayed postemergence with 200 g/ha PURSUIT™ eleven days later. The PURSUIT™ is applied as previously described.

[4] = tested on: wheat variety Fidel and resistant selections FS2 and FS4; assay: Preemergence Herbicide Tolerance; type: in vivo; conditions: pre-emergence application; plant growth after four weeks; versus Fidel
[5] = Control 2 = Fidel on medium with herbicide, concentration 10^−5
[6] = Control 2 = Fidel on medium with herbicide, concentration 10^−6
[7] = Control M3 = M3 seed on medium with herbicide (footnote), section 10^−5
[8] = Control M3 = M3 seed on medium with herbicide (footnote), section 10^−6
[9] = FS1 M3 embryos, concentration 10^−5
[10] = FS1 M3 embryos, concentration 10^−6
[11] = FS2 M3 embryos, concentration 10^−5
[12] = FS2 M3 embryos, concentration 10^−6
[13] = FS3 M3 embryos, concentration 10^−5
[14] = FS3 M3 embryos, concentration 10^−6
[15] = FS4 M3 embryos, concentration 10^−5
[16] = FS4 M3 embryos, concentration 10^−6

CCc1cnc(C2=NC(C)(C(C)C)C(=O)N2)c(C(=O)O)c1 (stereo not drawn) [PURSUIT, 5-ethyl-2-(4-isopropyl-4-methyl-5-oxo-2-imidazolin-2-yl)-nicotinic acid]
Embryo Rating D (Damaged), number of embryos [1, 5]: 0
Embryo Rating S (Susceptible), number of embryos [1, 5]: 30
Embryo Rating T (Tolerant), number of embryos [1, 5]: 0
Embryo Rating D (Damaged), number of embryos [1, 6]: 0
Embryo Rating S (Susceptible), number of embryos [1, 6]: 15
Embryo Rating T (Tolerant), number of embryos [1, 6]: 0
Ave. Shoot Height [1, 7]: 14.7 cm
Embryo Rating D (Damaged), number of embryos [1, 7]: 1
Embryo Rating S (Susceptible), number of embryos [1, 7]: 1
Embryo Rating T (Tolerant), number of embryos [1, 7]: 27
Range Shoot Heights [1, 7]: 1-28 cm
Ave. Shoot Height [1, 8]: 14.6 cm
Embryo Rating D (Damaged), number of embryos [1, 8]: 0
Embryo Rating S (Susceptible), number of embryos [1, 8]: 0
Embryo Rating T (Tolerant), number of embryos [1, 8]: 15
Range Shoot Heights [1, 8]: 2-28 cm
Embryo Rating D (Damaged), number of embryos [1, 9]: 16
Embryo Rating S (Susceptible), number of embryos [1, 9]: 42
Embryo Rating T (Tolerant), number of embryos [1, 9]: 21
Range Shoot Heights [1, 9]: 0-1.5 cm
Ave. Shoot Height [1, 10]: 9.1 cm
Embryo Rating D (Damaged), number of embryos [1, 10]: 0
Embryo Rating S (Susceptible), number of embryos [1, 10]: 0
Embryo Rating T (Tolerant), number of embryos [1, 10]: 70
Range Shoot Heights [1, 10]: 1-22 cm
Embryo Rating D (Damaged), number of embryos [1, 11]: 14
Embryo Rating S (Susceptible), number of embryos [1, 11]: 45
Embryo Rating T (Tolerant), number of embryos [1, 11]: 21
Range Shoot Heights [1, 11]: 0-3.5 cm
Ave. Shoot Height [1, 12]: 11.4 cm
Embryo Rating D (Damaged), number of embryos [1, 12]: 1
Embryo Rating S (Susceptible), number of embryos [1, 12]: 0
Embryo Rating T (Tolerant), number of embryos [1, 12]: 64
Range Shoot Heights [1, 12]: 1-23 cm
Embryo Rating D (Damaged), number of embryos [1, 13]: 9
Embryo Rating S (Susceptible), number of embryos [1, 13]: 58
Embryo Rating T (Tolerant), number of embryos [1, 13]: 12
Range Shoot Heights [1, 13]: 0-4.5 cm
Ave. Shoot Height [1, 14]: 5.2 cm
Embryo Rating D (Damaged), number of embryos [1, 14]: 12
Embryo Rating S (Susceptible), number of embryos [1, 14]: 22
Embryo Rating T (Tolerant), number of embryos [1, 14]: 34
Range Shoot Heights [1, 14]: 1-23 cm
Embryo Rating D (Damaged), number of embryos [1, 15]: 15
Embryo Rating S (Susceptible), number of embryos [1, 15]: 31
Embryo Rating T (Tolerant), number of embryos [1, 15]: 16
Range Shoot Heights [1, 15]: 0-3.0 cm
Ave. Shoot Height [1, 16]: 13.4 cm
Embryo Rating D (Damaged), number of embryos [1, 16]: 8
Embryo Rating S (Susceptible), number of embryos [1, 16]: 13
Embryo Rating T (Tolerant), number of embryos [1, 16]: 59
Range Shoot Heights [1, 16]: 1-33 cm
embryos that germinate ([1]; Fidel controls or M3 embryos, medium containing 10^−4 M): None of the embryos
tolerance of embryos ([1]; M3 embryos, 10^−5 M in the medium, still considerable growth inhibition): somewhat tolerant
susceptibility of Fidel ([2]; Fidel, 62.5 g/ha postemergence at Z12 stage, three weeks after spraying, all plants die): completely susceptible
tolerance of resistant selections ([2]; imidazolinone-resistant winter wheat selections, M4, 62.5 g/ha postemergent, greenhouse): excellent tolerance
segregation ratio of F2 progenies ([3]; F2 of each of the four crosses (Fidel x FS1-FS4) selfed): 3 (resistant): 1 (susceptible)
lethality ([3]; plants heterozygous or homozygous for resistance): non-lethal
lethality ([3]; susceptible wheat): lethal to susceptible wheat
increased tolerance of FS2 and FS4 [4]: approximately 8 fold

Source: patent US7034208B1, “Ahas inhibiting herbicide resistant wheat and method for selection thereof” (BASF Aktiengellschaft, priority 1991, dated 2006)
